Where two headings read alike, the source gives them in different places.
Assays:
[1] = test system: Chinese hamster ovary (CHO) cells; experiment: In vitro genotoxicity screen in CHO cells; format: cell-based; settings: approximately 3 hours exposure in the dark, dilutions 1-1000 μg/ml
Description: The positive control was methylmethane sulfonate.
Coverslips were mounted with Permount.

[2] = test system: R17; experiment: R17 bacteriophage inactivation assay (r-17 screen); format: cell-based, bacteriophage R17 (grown in Hfr 3000 bacteria)
Procedure: An r-17 bacteriophage assay was used in this example to predict pathogen inactivation efficiency and to determine nucleic acid binding of the photoreactive binding compounds of the present invention. In the r-17 assay, the bacteriophage was placed in a solution with each compound tested and was then irradiated. The ability of the phage to subsequently infect bacteria and inhibit their growth was measured. The bacteriophage was selected for its relatively accessible nucleic acid such that the culture growth inhibition would accurately reflect nucleic acid damage by the test compounds. The bacteriophage assay for nucleic acid binding to test compounds offers a safe and inexpensive procedure to identify compounds likely to display efficient pathogen inactivation.
The R17 was grown up in Hfr 3000 bacteria, approximate titer 5 ×10^11. (R17 and Hfr 3000 were obtained from American Tissue Culture Collection (ATCC), Washington, D.C.) The R17 phage stock was added to a solution of 15% fetal bovine serum in Dulbecco's Modified Eagles Medium (DMEM) to a final phage concentration of 10^9/mL. An aliquot (0.5 mL) was transferred to a 1.5 mL snap-top polyethylene tube. An aliquot (0.004-0.040 mL) of the test compound stock solution prepared in water, ethanol or dimethylsulfoxide at 0.80-8.0 mM was added to the tube. Compounds were tested at concentrations between 4 μM and 320 μM. […] The tubes were placed in a light device as described in EXAMPLE 1 and irradiated for between 1 and 10 minutes. Sterile 13 mL dilution tubes were prepared; each test compound required one tube with 0.4 mL of Luria broth (LB) and five tubes containing 0.5 mL of LB broth. To make the dilutions, a 0.100 mL aliquot of the irradiated solution of phage and test compound was added to the first dilution tube of 0.4 mL of media then 0.020 mL of this solution was added to the second tube of 0.5 mL medium (1:25). The second solution was then diluted serially (1:25) into the remaining tubes. To each diluted sample was added 0.050 mL of Hfr 3000 bacteria cultured overnight and 3 mL of molten LB top agar and the mixed materials were poured onto LB broth plates. After the top agar hardened, the plates were incubated at 37° C. overnight. The plaque forming units were then counted the following morning and the titer of the phage remaining after phototreatment was calculated based on the dilution factors.
The following controls were run: the “phage only” in which phage was not treated with test compound and not irradiated (listed as “starting titer” in the tables below); the “UV only” in which the phage was irradiated in the absence of test compound; and the “dark” control in which the phage/test compound solution was not irradiated before it was diluted and plated.
Compounds of the present invention were also tested at a constant concentration for varying doses of UV light. Three sets of 1.5 mL tubes were prepared containing 0.6 mL aliquots of R17 in DMEM (prepared as described above). The compound tested was added at the desired concentration and the samples were vortexed. The samples were then irradiated at intervals of 1.0 J/cm^2, until 3.0 J/cm^2 was reached. Between each 1.0 J/cm^2 interval, 100 μL was removed from each sample and placed in the first corresponding dilution tube, then five sequential dilutions were performed for each compound tested, at all 3 irradiation doses, as described above in this example.
Then 50 μL of Hfr 3000 bacteria was added to each tube, 3 mL of top agar was added and the tube contents were vortexed. The contents of each tube was poured into its own LB plate and the plates were incubated overnight at 37° C. Plaques were counted by visual inspection the following morning.

[3] = test system: Salmonella typhimurium TA1538; experiment: Ames assay (dark mutagenicity), strain TA1538
Description: (§1) The second property that is important in testing a compound for use in methods of the present invention is mutagenicity. The most widely used mutagen/carcinogen screening assay is the Ames test. This assay is described by D. M. Maron and B. N. Ames in Mutation Research 113: 173 ( 1983) and a specific screen is described in detail in Example 17, below. The Ames test utilizes several unique strains of Salmonella typhimurium that are histidine- dependent for growth and that lack the usual DNA repair enzymes. The frequency of normal mutations that render the bacteria independent of histidine (i.e., the frequency of spontaneous revertants) is low. The test allows one to evaluate the impact of a compound on this revertant frequency.
(§2) In this example the compounds of the present invention are tested for their dark mutagenicity using an Ames assay. The procedures used for the Salmonella mutagenicity test as described in detail by Maron and Ames were followed exactly. Maron, D. M. and B. N. Ames, Mutation Research 113: 173 ( 1983). A brief description for each procedure is given here. The tester strains TA97a, TA98, TA100, TA102, TA1537 and TA1538 were obtained from Dr. Ames. TA97a, TA98, TA1537 and TA1538 are frameshift tester strains. TA100 and TA102 are base-substitution tester strains. Upon receipt each strain was cultured under a variety of conditions to confirm the genotypes specific to the strains.
(§3) The first tests done with the strains were to determine the range of spontaneous reversion for each of the strains. With each mutagenicity experiment the spontaneous reversion of the tester strains to histidine independence was measured and expressed as the number of spontaneous revertants per plate. This served as the background controls.
(§4) For all experiments, the pre-incubation procedure was used. In this procedure one vial of each tester strain was thawed and 20 μL of this culture was added to 6 mL of Oxoid Nutrient Broth #2. This solution was allowed to shake for 10 hours at 37° C. In the pre-incubation procedure, 0.1 mL of this overnight culture was added to each of the required number of sterile test tubes. To half of the tubes 0.5 mL of a 10% S-9 solution containing Aroclor 1254 induced rat liver extract (Molecular Toxicology Inc., Annapolis, Md.), and MgCl2, KCl, glucose-6-phosphate, NADP, and sodium phosphate buffer (Sigma, St. Louis, Mo.) were added. To the other half of the tubes 0.5 mL of 0.2M sodium phospate buffer, pH 7.4, was used in place of the S-9 mixture (the -S9 samples). Finally 0.1 mL of the test solution containing either 0, 0.1, 0.5, 1, 5, 10, 50, 100, 250, or 500 μg/mL of the test compound was added. The 0.7 mL mixture was vortexed and then pre-incubated while shaking for 20 minutes at 37° C. After shaking, 2 mL of molten top agar supplemented with histidine and biotin were added to the 0.7 mL mixture and immediately poured onto a minimal glucose agar plate (volume of base agar was 20 mL). The top agar was allowed 30 minutes to solidify and then the plates were inverted and incubated for 44 hours at 37° C. After incubation the number of revertant colonies on each plate were counted. […] (“n” represents the number of replicates performed for each data point.)
(§5) Maron and Ames (1983) describe the conflicting views with regard to the statisical treatment of data generated from the test.

[4] = test system: Salmonella typhimurium TA100
Description: as §1, §2, §3, §4, §5

[5] = test system: Salmonella tester strains TA97a, TA98, TA100, TA102, TA1537 and TA1538; experiment: Ames assay, overall assessment over the tester strains; settings: strains tested: TA100 and TA1538, ±S9, 5 and 10 μg/plate
Description: as §1, §2, §3
For all experiments, the pre-incubation procedure was used. In this procedure one vial of each tester strain was thawed and 20 μL of this culture was added to 6 mL of Oxoid Nutrient Broth #2. This solution was allowed to shake for 10 hours at 37° C. In the pre-incubation procedure, 0.1 mL of this overnight culture was added to each of the required number of sterile test tubes. To half of the tubes 0.5 mL of a 10% S-9 solution containing Aroclor 1254 induced rat liver extract (Molecular Toxicology Inc., Annapolis, Md.), and MgCl2, KCl, glucose-6-phosphate, NADP, and sodium phosphate buffer (Sigma, St. Louis, Mo.) were added. To the other half of the tubes 0.5 mL of 0.2M sodium phospate buffer, pH 7.4, was used in place of the S-9 mixture (the -S9 samples). Finally 0.1 mL of the test solution containing either 0, 0.1, 0.5, 1, 5, 10, 50, 100, 250, or 500 μg/mL of the test compound was added. […] After incubation the number of revertant colonies on each plate were counted. […]

[6] = test system: Salmonella typhimurium TA102; experiment: Ames assay (dark mutagenicity), strain TA102; settings: TA102 at 500 μg/plate
Description: as §1, §2, §3, §4, §5

[7] = test system: Duck Hepatitis B Virus (DHBV); experiment: Inactivation of DHBV in platelet concentrate, PCR amplification readout; settings: 5J/CM^2 UVA
Procedure: This example describes the protocol for inactivation of Duck Hepatitis B Virus (DHBV), a model for Hepatitis B Virus, using compounds of the present invention. DHBV in duck yolk was added to platelet concentrate (PC) to a final concentration of 2×10^7 particles per mL and mixed by gentle rocking for ≧15 min. […] Samples, including controls without added psoralen, were irradiated with 5J/CM^2 UVA, with mixing at 1 J/cm^2 increments. After irradiation, leukocytes and platelets were separated from virus by centrifugation. […] Samples were extracted with phenol-chloroform and chloroform, followed by ethanol precipitation. […] PCR amplicons were generated using primers pairs DCD03/DCD05 (127 bp), DCD03/DCD06 (327 bp) and DCD03/DCD07 (1072 bp). PCR was performed in a standard PCR buffer containing 0.2 mM each deoxyribonucleoside 5′-triphosphates (dATP, dGTP, dCTP, and dTTP), […], and 0.5 units Taq polymerase per […]. 30 cycles of amplification were performed with the following thermal profile: 95° C. 30 sec, 60° C. 30 sec, 72° C. 1 min. The amplification was followed by a 7 min incubation at 72° C. to yield full length products. […] was added at an amount of […] in order to detect and quantify the resulting products. Products were separated by electrophoresis on denaturing polyacrylamide slab gels and counted. The absence of signal in a given reaction was taken to indicate effective inactivation of DHBV.

## Cc1oc2c(CN)c3oc(=O)cc(C)c3cc2c1C [8-aminomethyl-4,4′, 5′-trimethylpsoralen, reference compound]
[1]
  genotoxic (toxic) concentration: 10 µg/mL

## Cc1oc2c(C)c3oc(=O)cc(C)c3cc2c1CNCCN [Compound 1, 4′-(4-amino-2-aza)butyl-4,5′,8-trimethylpsoralen]
[2]; 32 μM, 1 minute irradiation
  R17 inactivation efficiency compared with 8-MOP: much higher R17 inactivation efficiency than does 8-MOP
[2]; experiment 1, 32 μM cmpd, 1′ uva, phage only titer 7.7
  LOG TITER: <1 log
[2]; experiment 1, 32 μM cmpd, 10′ uva, phage only titer 7.7
  LOG TITER: <1 log
[2]; experiment 1, compound only (32 μM), no uva, phage only titer 7.7
  LOG TITER: 7.6 log
[2]; experiment 2, 3.2 μM cmpd, 1′ uva, phage only titer 7.8
  LOG TITER: 6.9 log
[2]; experiment 2, 3.2 μM cmpd, 10′ uva, phage only titer 7.8
  LOG TITER: 6.1 log
[2]; experiment 2, compound only (3.2 μM), no uva, phage only titer 7.8
  LOG TITER: 7.7 log
[2]; experiment 3, 4 μM cmpd, 1′ uva, phage only titer 7.3
  LOG TITER: 6.3 log
[2]; experiment 3, 8 μM cmpd, 1′ uva, phage only titer 7.3
  LOG TITER: 5.6 log
[2]; experiment 3, 16 μM cmpd, 1′ uva, phage only titer 7.3
  LOG TITER: 3.9 log
[2]; experiment 3, compound only (16 μM), no uva, phage only titer 7.3
  LOG TITER: 7.3 log
[3]; TA1538 at 5 μg/plate in the presence of S9
  mutagenic response detected: weak frameshift mutagen
[3]; TA1538 −S9, 5 μg/plate
  revertants per plate: 10
[3]; TA1538 −S9, 10 μg/plate
  revertants per plate: 12
[4]; TA100 +S9, 5 μg/plate
  revertants per plate: −24
[4]; TA100 +S9, 10 μg/plate
  revertants per plate: −22
[4]; TA100, with and without S9
  mutation in the TA100 strain: displayed mutation in the TA100 strain, but only in the absence of S9

## Cc1oc2c(C)c3oc(=O)cc(C)c3cc2c1COCCCN [Compound 4, 4′-(5-amino-2-oxa)pentyl-4,5′,8-trimethylpsoralen]
[5]
  mutagenicity (overall): no mutagenicity
[3]; TA1538 −S9, 5 μg/plate
  revertants per plate: −2
[3]; TA1538 −S9, 10 μg/plate
  revertants per plate: −2
[4]; TA100 +S9, 5 μg/plate
  revertants per plate: −10
[4]; TA100 +S9, 10 μg/plate
  revertants per plate: −3

## COc1c2occc2cc2ccc(=O)oc12 [Compound 8-MOP, 8-Methoxypsoralen]
[6]
  mutagenic response detected: weak base-substitution mutagen

## Cc1oc2c(C)c3oc(=O)cc(C)c3cc2c1COCCN [Compound S-59]
[7]; all concentrations (35, 70, and 100 mM)
  PCR amplification of the 1072 bp DHBV amplicon: complete inhibition of PCR
[7]; same concentrations
  inhibition of PCR of the smaller DHBV amplicons (127 bp, 327 bp) compared with AMT: inhibited PCR of the smaller amplicons better than did AMT

Source: patent US6469052B2, “Compounds for the photodecontamination of pathogens in blood” (Cerus Corporation, priority 1993, dated 2002)
